9 molecules from ChEMBL document CHEMBL1201862, “PubChem BioAssay data set” (2004) can be followed below.

Each structure is given as a SMILES string.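 48-hour exposure; five concentrations; linearly interpolated endpoints. GI50: concentration for 50% inhibition of growth.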 The source made the active and inactive calls. Rule as the data show it: active = GI50 up to about 1.1 µM and inactive = higher.

Test systems include HL-60; TK-10; UACC-62; HCC 2998; OVCAR-8; OVCAR-3; SK-MEL-28; M14; SN12C; EKVX; Malme-3M; SK-MEL-2; OVCAR-5; SF-539; HCT-15; HT-29; SNB-19.
What all share (assay): NCI-60 cell line screen, 48 h

For the molecule `COC1C=CC(O)C(CO)O1` (stereo unspecified), the GI50 with HL-60, in the test with TK-10, in the test on UACC-62, in the test with HCC 2998, with OVCAR-8 and in the test with OVCAR-3 was > 100 µM (inactive) each time. Further, the GI50 in the test with SK-MEL-28, with M14, in the test on SN12C, with EKVX, in the test with Malme-3M and in the test with SK-MEL-2 was > 100 µM (inactive) throughout. Further, the GI50 is > 100 µM (inactive) in the test with OVCAR-5, > 100 µM (inactive) in the test with SF-539, > 100 µM in the test on HCT-15 and > 100 µM (inactive) in the test on HT-29.
For the molecule `COC(=O)C1=COC2OC3/C(=C\c4ccc(O)c(OC)c4)C(=O)OC34C=CC1C24` (stereo unspecified), the GI50 with HL-60 is 9.18 µM (inactive); in the test with TK-10, 17.3 µM (inactive); in the test with UACC-62 it was 19.6 µM (inactive); with HCC 2998 it was 10.8 µM (inactive); with OVCAR-8 it was 18.9 µM (inactive); in the test on OVCAR-3, 14.9 µM (inactive). For the same molecule, the GI50 was 18.6 µM (inactive) in the test on SK-MEL-28; 3.37 µM (inactive) in the test on M14; 17.8 µM (inactive) in the test with SN12C; 16.5 µM (inactive) with Malme-3M; 19.6 µM (inactive) in the test on SNB-19; 11.3 µM (inactive) with SK-MEL-2. The GI50 in the test on OVCAR-5 is 18.3 µM (inactive); in the test with SF-539, 17.4 µM (inactive); in the test with HCT-15, 14.6 µM; in the test with HT-29, 19.2 µM (inactive).
In the case of `N#C/C(=C\c1cccc(O)c1O)C(N)=O`, the GI50 with HL-60 is 15.5 µM (inactive); with TK-10 it was 42.1 µM (inactive); in the test with UACC-62, 35.2 µM (inactive); in the test on HCC 2998, 20.3 µM (inactive); with OVCAR-8 it was 60.8 µM (inactive); in the test with OVCAR-3 it was 40.9 µM (inactive). The GI50 was 30.8 µM (inactive) in the test on SK-MEL-28; 67.1 µM (inactive) in the test with M14; 45.6 µM (inactive) in the test with SN12C; 34.8 µM (inactive) in the test with EKVX; 46.8 µM (inactive) in the test with Malme-3M; 57.5 µM (inactive) in the test with SNB-19. The GI50 in the test on SK-MEL-2 is 38.4 µM (inactive); in the test with OVCAR-5 it was > 100 µM (inactive); in the test with SF-539, 34 µM (inactive); in the test with HCT-15, 57.8 µM; with HT-29 it was 58.5 µM (inactive).
With `N/C(=N\O)N/N=C\c1cc([N+](=O)[O-])cc([N+](=O)[O-])c1O`, the GI50 in the test on HL-60 is 3.36 µM (inactive); in the test on UACC-62 it was 1.58 µM (inactive); in the test with HCC 2998, 14.5 µM (inactive); with OVCAR-8 it was 6.11 µM (inactive); in the test on OVCAR-3, 59.3 µM (inactive); with SK-MEL-28 it was > 100 µM (inactive). Further, the GI50 with SN12C was 24.2 µM (inactive); in the test with EKVX it was > 100 µM (inactive); in the test on Malme-3M it was > 100 µM (inactive); in the test with SNB-19, > 96.2 µM (inactive); in the test with SK-MEL-2, > 100 µM (inactive); with OVCAR-5 it was > 30.5 µM (inactive). In addition, the GI50 in the test with SF-539 is 18.4 µM (inactive); in the test with HCT-15, 6.14 µM; in the test with HT-29, 11.4 µM (inactive).
As to `O=C1C2Cc3ccccc3CN2C(=O)N1CN1CCCCC1` (stereo unspecified), the GI50 was 26.6 µM (inactive) with HL-60; > 100 µM (inactive) in the test on TK-10; 78 µM (inactive) in the test with UACC-62; > 100 µM (inactive) in the test with HCC 2998; > 100 µM (inactive) in the test on OVCAR-8; > 100 µM (inactive) in the test on OVCAR-3. Moreover, the GI50 with SK-MEL-28, with M14, with SN12C, in the test with Malme-3M, in the test with SNB-19 and in the test with SK-MEL-2 was > 100 µM (inactive) each time. In addition, the GI50 in the test on OVCAR-5 was > 100 µM (inactive); with SF-539, > 100 µM (inactive); in the test with HCT-15 it was 43.6 µM.
Turning to `NC(=O)C1(c2ccccc2)Nc2ccccc2S1` (stereo unspecified), the GI50 in the test on HL-60, with TK-10, in the test on UACC-62, in the test with HCC 2998, with OVCAR-8 and with OVCAR-3 was > 100 µM (inactive) in each case. In addition, the GI50 in the test on SK-MEL-28, with M14, in the test with SN12C, in the test on EKVX, with Malme-3M and in the test on SNB-19 was > 100 µM (inactive) throughout. Also, the GI50 with SK-MEL-2 was > 100 µM (inactive); in the test on OVCAR-5, > 100 µM (inactive); with SF-539, > 100 µM (inactive); with HCT-15, > 100 µM; in the test on HT-29, > 100 µM (inactive).
Turning to `C#CC[C@@]12CC(=O)C[C@@H]1CCC1(C2)OCCO1.C#CC[C@]12CC(=O)CC[C@H]1CC(=O)C2`, the GI50 was 29.1 µM (inactive) with HL-60; 95.5 µM (inactive) with UACC-62; > 100 µM (inactive) with HCC 2998; > 100 µM (inactive) with OVCAR-8; > 100 µM (inactive) in the test with OVCAR-3; > 100 µM (inactive) with SK-MEL-28. Also, the GI50 with SN12C, with EKVX, in the test on Malme-3M, with SNB-19, with SK-MEL-2 and in the test on OVCAR-5 was > 100 µM (inactive) in each case. Further, the GI50 in the test with SF-539 is > 100 µM (inactive); in the test on HCT-15, > 100 µM; in the test on HT-29, > 100 µM (inactive).
Consider `Cc1c(N=NN(C)C)cc[n+]([O-])c1C`, for which the GI50 in the test with HL-60, in the test on UACC-62, in the test on HCC 2998, with OVCAR-8, in the test on OVCAR-3 and with SK-MEL-28 was > 100 µM (inactive) in each case. Moreover, the GI50 in the test on SN12C, with EKVX, in the test on Malme-3M, in the test on SNB-19, with SK-MEL-2 and in the test on OVCAR-5 was > 100 µM (inactive) in each case. The values for the GI50 in the test with SF-539, with HCT-15 and in the test with HT-29 were > 100 µM (inactive), > 100 µM and > 100 µM (inactive), respectively.
`CSc1nc2c(ncn2C2OCC(O)C(O)C2O)c(=O)n1C` (stereo unspecified): the GI50 with HL-60, with UACC-62, in the test on HCC 2998, in the test on OVCAR-8, with OVCAR-3 and with SK-MEL-28 was > 100 µM (inactive) in each case. In addition, the GI50 in the test on SN12C, in the test with EKVX, in the test on Malme-3M, in the test with SNB-19, in the test with SK-MEL-2 and in the test on OVCAR-5 was > 100 µM (inactive) throughout. The GI50 was > 100 µM (inactive) in the test on SF-539, > 100 µM in the test on HCT-15 and > 100 µM (inactive) with HT-29.
